The compounds below were run against T1, human full-length recombinant PKC βII (Homo sapiens, UniProt P05771) (assay: Determination of PKC βII inhibition (Caliper mobility shift kinase assay)). Conditions: final compound concentration 1.14 μM (±0.15 μM); 60 min incubation at 32° C.
T1 construct: Active human full-length recombinant PKC βII; purchased Invitrogen GmbH, Darmstadt, Germany
T1 sequence (P05771 1-673 isoform P05771-2): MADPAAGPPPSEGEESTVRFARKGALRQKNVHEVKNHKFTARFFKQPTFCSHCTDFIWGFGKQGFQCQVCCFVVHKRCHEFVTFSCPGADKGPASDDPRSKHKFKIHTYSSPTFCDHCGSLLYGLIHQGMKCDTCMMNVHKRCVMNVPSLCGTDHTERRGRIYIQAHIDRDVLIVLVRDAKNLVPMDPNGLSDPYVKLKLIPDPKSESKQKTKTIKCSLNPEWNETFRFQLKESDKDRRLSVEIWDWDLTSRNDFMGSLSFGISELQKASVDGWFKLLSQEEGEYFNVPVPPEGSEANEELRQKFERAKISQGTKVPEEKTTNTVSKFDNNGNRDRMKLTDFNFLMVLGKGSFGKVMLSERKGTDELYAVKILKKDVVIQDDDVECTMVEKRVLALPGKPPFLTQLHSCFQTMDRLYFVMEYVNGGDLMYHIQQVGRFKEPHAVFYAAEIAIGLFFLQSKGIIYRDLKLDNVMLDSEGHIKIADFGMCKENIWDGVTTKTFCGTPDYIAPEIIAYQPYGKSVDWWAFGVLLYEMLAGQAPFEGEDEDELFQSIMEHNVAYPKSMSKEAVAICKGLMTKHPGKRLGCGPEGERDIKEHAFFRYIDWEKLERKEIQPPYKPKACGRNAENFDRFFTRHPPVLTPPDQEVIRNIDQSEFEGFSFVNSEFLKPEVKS
Format: biochemical
Protocol: Determination of PKC βII Inhibition
PKC βII inhibition was determined according to the following protocol:
Active human full-length recombinant PKC βII and the peptide substrate, Fluorescein-RFARKGSLRQKNV, were purchased from Invitrogen GmbH, Darmstadt, Germany. Adenosine-5′-triphosphate (ATP), bovine serum albumine (BSA), dimethylsulphoxide (DMSO), 4-(2-hydroxyethyl)piperazine-1-ethanesulfonic acid (Hepes), Triton X-100, 1,2-Dioleoyl-sn-glycerol (DAG), L-α-Phosphatidyl-L-serine (PS), calcium chloride (CaCl2), and Pluronic F-68 were purchased from Sigma-Aldrich, Munich, Germany. Magnesium chloride, 1 M sodium hydroxide solution, 1M hydrochloric acid solution and EDTA were obtained from Merck Biosciences, Darmstadt, Germany.
Test compounds were diluted to three times the test concentration in buffer 1 (30 mM Hepes-NaOH, pH 7.4, 0.01% Pluronic F-68 and 3% (v/v) DMSO). The […] enzyme was diluted to a concentration of 30 ng/ml in buffer 2 (30 mM Hepes-NaOH, pH 7.4, 15 mM MgCl2, 150 μM CaCl2, 150 μg/ml PS, 60 μg/ml DAG, and 0.045% (w/v) Triton X-100). The peptide substrate and ATP were diluted to concentrations of 3 μM and 120 μM, respectively, in buffer 2. Two μl of the compound solution were mixed with 2 μl of the diluted enzyme in a 384-well small volume microtiter plate (Greiner, Bio-One, Frickenhausen, Germany), and the kinase reaction was initiated by addition of 2 μl of the solution containing peptide substrate and ATP. After 60 min incubation at 32° C., the reaction was stopped by addition of 20 μl of a solution containing 130 mM Hepes-NaOH, pH 7.4, 0.0195% (v/v) Brij-35, 6.5 mM EDTA, 0.13% chip coating reagent 3 (Caliper Lifescience Inc, Hopkinton, Mass.) and 6.5% (v/v) DMSO. Phosphorylation of the substrate peptide was then detected on a Caliper 3000 instrument essentially as described by Pommereau et al (J. Biomol. Screening 2004, 9(5), 409-416). Separation conditions were as follows: Pressure −0.8 psi, upstream voltage −3000 V, downstream voltage −800 V. Positive controls (buffer 1 instead of compound) and negative controls (buffer 1 instead of compound and buffer 2 instead of kinase solution) were run in parallel on each plate. Fractional turnover (R) was determined as the height of the peak of the phosphorylated peptide product divided by the sum of the unphosphorylated substrate and phosphorylated product peak heights. Percent-inhibition values for the test compounds were determined using the formula % Inhibition=100*(1−(Rcompound−Rnegative control)/(Rpositive control−Rnegative control).
In the following table % inhibition values observed with example compounds at a final concentration of 1.14 μM (±0.15 μM) are listed: […]
For `Cc1n[nH]c2nc(-c3ccc(O)cc3F)cc(CN3CC(C)(C)NCC3(C)C)c12` [Example 28, 3-Fluoro-4-[3-methyl-4-(2,2,5,5-tetramethyl-piperazin-1-ylmethyl)-1H-pyrazolo[3,4-b]pyridin-6-yl]-phenol], the inhibition at 1.14 µM was 97%.
`CC[C@@H]1CN(Cc2cc(-c3ccc(O)cc3F)nc3[nH]nc(C)c23)[C@@H](C)CN1` [Example 30, 4-[4-((2S,5R)-5-Ethyl-2-methyl-piperazin-1-ylmethyl)-3-methyl-1H-pyrazolo[3,4-b]pyridin-6-yl]-3-fluoro-phenol] gave an inhibition at 1.14 µM of 97%.
Work on `CCC1(C)CNC(C)(C)CN1Cc1cc(-c2ccc(O)cc2F)nc2[nH]nc(C)c12` (centres unmarked) [Example 31, 4-[4-(2-Ethyl-2,5,5-trimethyl-piperazin-1-ylmethyl)-3-methyl-1H-pyrazolo[3,4-b]pyridin-6-yl]-3-fluoro-phenol] yielded an inhibition at 1.14 µM of 101%.
With `CCC1(CC)CNC(C)(C)CN1Cc1cc(-c2ccc(O)cc2F)nc2[nH]nc(C)c12` [Example 32, 4-[4-(2,2-Diethyl-5,5-dimethyl-piperazin-1-ylmethyl)-3-methyl-1H-pyrazolo[3,4-b]pyridin-6-yl]-3-fluoro-phenol] the inhibition at 1.14 µM was 101%.
`Cc1n[nH]c2nc(-c3ccc(O)cc3)cc(CN3CC4(CCCC4)NCC3C)c12` (centres unmarked) [Example 33, 4-[3-Methyl-4-(8-methyl-6,9-diaza-spiro[4.5]dec-9-ylmethyl)-1H-pyrazolo[3,4-b]pyridin-6-yl]-phenol] showed an inhibition at 1.14 µM of 93%.
`Cc1n[nH]c2nc(-c3ccc(O)cc3F)cc(CN3CC(C)(C)NCC3(C)C3CC3)c12` (centres unmarked) [Example 34, 4-[4-(2-Cyclopropyl-2,5,5-trimethyl-piperazin-1-ylmethyl)-3-methyl-1H-pyrazolo[3,4-b]pyridin-6-yl]-3-fluoro-phenol] gave an inhibition at 1.14 µM of 73%.
`Cc1n[nH]c2nc(-c3ccc(O)cc3F)cc(CN3CC4(CCCC4)NCC3C)c12` (centres unmarked) [Example 35, 3-Fluoro-4-[3-methyl-4-(8-methyl-6,9-diaza-spiro[4.5]dec-9-ylmethyl)-1H-pyrazolo[3,4-b]pyridin-6-yl]-phenol] was tested, and the inhibition at 1.14 µM was 78%.
In the case of `Cc1n[nH]c2nc(-c3ccc(O)cc3F)cc(CN3CC4(CCCC4)NCC3(C)C)c12` [Example 36, 4-[4-(8,8-Dimethyl-6,9-diaza-spiro[4.5]dec-9-ylmethyl)-3-methyl-1H-pyrazolo[3,4-b]pyridin-6-yl]-3-fluoro-phenol], the inhibition at 1.14 µM is reported as 94%.
`Cc1n[nH]c2nc(-c3ccc(O)cc3F)cc(CN3CC(C)(C)NCC3C(C)C)c12` (centres unmarked) [Example 37, 3-Fluoro-4-[4-(2-isopropyl-5,5-dimethyl-piperazin-1-ylmethyl)-3-methyl-1H pyrazolo[3,4-b]pyridin-6-yl]-phenol] showed an inhibition at 1.14 µM of 94%.
`Cc1n[nH]c2nc(-c3ccc(O)cc3F)cc(CN3CC(C)(C)NCC3C)c12` (centres unmarked) [Example 38, 3-Fluoro-4-[3-methyl-4-(2,5,5-trimethyl-piperazin-1-ylmethyl)-1H-pyrazolo[3,4-b]pyridin-6-yl]-phenol] was tested, and the inhibition at 1.14 µM was 99%.
With `CCC1CNC(C)(C)CN1Cc1cc(-c2ccc(O)cc2F)nc2[nH]nc(C)c12` (centres unmarked) [Example 39, 4-[4-(2-Ethyl-5,5-dimethyl-piperazin-1-ylmethyl)-3-methyl-1H-pyrazolo[3,4-b]pyridin-6-yl]-3-fluoro-phenol] the inhibition at 1.14 µM was 100%.
`Cc1n[nH]c2nc(-c3ccc(O)cc3)cc(CN3CCNCC34CC4)c12` [Example 40, 4-[4-(4,7-Diaza-spiro[2.5]oct-4-ylmethyl)-3-methyl-1H-pyrazolo[3,4-b]pyridin-6-yl]-phenol] was tested, and the inhibition at 1.14 µM was 97%.
Work on `Cc1n[nH]c2nc(-c3ccc(O)cc3)cc(CN3CCNCC3c3ccccc3)c12` (centres unmarked) [Example 41, 4-[3-Methyl-4-(2-phenyl-piperazin-1-ylmethyl)-1H-pyrazolo[3,4-b]pyridin-6-yl]-phenol] yielded an inhibition at 1.14 µM of 93%.
Compound `Cc1n[nH]c2nc(-c3ccc(O)cc3)cc(CN3CCNCC3c3ccc(F)cc3)c12` (centres unmarked) [Example 42, 4-{4-[2-(4-Fluoro-phenyl)-piperazin-1-ylmethyl]-3-methyl-1H-pyrazolo[3,4-b]pyridin-6-yl}-phenol] has an inhibition at 1.14 µM of 94%.
`Cc1n[nH]c2nc(-c3ccc(O)cc3)cc(CN3CCNCC3c3ccc(C(F)(F)F)cc3)c12` (centres unmarked) [Example 44, 4-{3-Methyl-4-[2-(4-trifluoromethyl-phenyl)-piperazin-1-ylmethyl]-1H-pyrazolo[3,4-b]pyridin-6-yl}-phenol] gave an inhibition at 1.14 µM of 38%.
`Cc1n[nH]c2nc(-c3ccc(O)cc3)cc(CN3CCNCC3c3ccc(C(C)C)cc3)c12` (centres unmarked) [Example 45, 4-{4-[2-(4-Isopropyl-phenyl)-piperazin-1-ylmethyl]-3-methyl-1H-pyrazolo[3,4-b]pyridin-6-yl}-phenol] was tested, and the inhibition at 1.14 µM was 54%.
In the case of `CCC1(NCc2cc(-c3ccc(O)cc3)nc3[nH]nc(C)c23)CCCNC1` (centres unmarked) [Example 46, 4-{4-[(3-Ethyl-piperidin-3-ylamino)-methyl]-3-methyl-1H-pyrazolo[3,4-b]pyridin-6-yl} phenol], the inhibition at 1.14 µM is reported as 90%.
`Cc1n[nH]c2nc(-c3ccc(O)cc3)cc(CN3CCNCC34CCCC4)c12` [Example 47, 4-[4-(6,9-Diaza-spiro[4.5]dec-6-ylmethyl)-3-methyl-1H-pyrazolo[3,4-b]pyridin-6-yl]-phenol] was tested, and the inhibition at 1.14 µM was 101%.
For `Cc1n[nH]c2nc(-c3ccc(O)cc3)cc(CN3CC(C)NCC3(C)C)c12` (centres unmarked) [Example 48, 4-[3-Methyl-4-(2,2,5-trimethyl-piperazin-1-ylmethyl)-1H-pyrazolo-[3,4-b]pyridin-6-yl]-phenol], the inhibition at 1.14 µM was 99%.
In the case of `Cc1n[nH]c2nc(-c3ccc(O)cc3)cc(CN3CC(C)(C)NCC3(C)C)c12` [Example 49, 4-[3-Methyl-4-(2,2,5,5-tetramethyl-piperazin-1-ylmethyl)-1H-pyrazolo[3,4-b]pyridin-6-yl]-phenol], the inhibition at 1.14 µM is reported as 95%.
Work on `CCC1(C)CNC(C)(C)CN1Cc1cc(-c2ccc(O)cc2)nc2[nH]nc(C)c12` (centres unmarked) [Example 50, 4-[4-(2-Ethyl-2,5,5-trimethyl-piperazin-1-ylmethyl)-3-methyl-1H-pyrazolo[3,4-b]pyridin-6-yl]-phenol] yielded an inhibition at 1.14 µM of 96%.
Work on `CCC1(CC)CNC(C)(C)CN1Cc1cc(-c2ccc(O)cc2)nc2[nH]nc(C)c12` [Example 51, 4-[4-(2,2-Diethyl-5,5-dimethyl-piperazin-1-ylmethyl)-3-methyl-1H-pyrazolo[3,4-b]pyridin-6-yl]-phenol] yielded an inhibition at 1.14 µM of 98%.
Work on `Cc1n[nH]c2nc(-c3ccc(O)cc3)cc(CN3CC(C)(C)NCC3C)c12` (centres unmarked) [Example 52, 4-[3-Methyl-4-(2,5,5-trimethyl-piperazin-1-ylmethyl)-1H-pyrazolo[3,4-b]pyridin-6-yl]-phenol] yielded an inhibition at 1.14 µM of 91%.
Compound `CCC1CNC(C)(C)CN1Cc1cc(-c2ccc(O)cc2)nc2[nH]nc(C)c12` (centres unmarked) [Example 53, 4-[4-(2-Ethyl-5,5-dimethyl-piperazin-1-ylmethyl)-3-methyl-1H-pyrazolo[3,4-b]pyridin-6-yl]-phenol] has an inhibition at 1.14 µM of 99%.
`Cc1n[nH]c2nc(-c3ccc(O)cc3)cc(CN3C[C@@H](C)NC[C@@H]3C)c12` [Example 54, 4-[4-((2S,5R)-2,5-Dimethyl-piperazin-1-ylmethyl)-3-methyl-1H-pyrazolo[3,4-b]pyridin-6-yl]-phenol] was tested, and the inhibition at 1.14 µM was 98%.
`Cc1n[nH]c2nc(-c3ccc(O)cc3F)cc(CN3CCNC(C)(C)C3)c12` [Example 55, 4-[4-(3,3-Dimethyl-piperazin-1-ylmethyl)-3-methyl-1H-pyrazolo[3,4-b]pyridin-6-yl]-3-fluoro-phenol] showed an inhibition at 1.14 µM of 86%.
With `Cc1n[nH]c2nc(-c3ccc(O)cc3F)cc(CN3CC(C)(C)OCC3(C)C)c12` [Example 56, 3-Fluoro-4-[3-methyl-4-(2,2,5,5-tetramethyl-morpholin-4-ylmethyl)-1H-pyrazolo[3,4-b]pyridin-6-yl]-phenol] the inhibition at 1.14 µM was 85%.
`CCC1(C)CN(Cc2cc(-c3ccc(O)cc3)nc3[nH]nc(C)c23)C(C)(C)CN1` (centres unmarked) [Example 57, 4-[4-(5-Ethyl-2,2,5-trimethyl-piperazin-1-ylmethyl)-3-methyl-1H-pyrazolo[3,4-b]pyridin-6-yl]-phenol] showed an inhibition at 1.14 µM of 93%.
`CCC1(CC)CN(Cc2cc(-c3ccc(O)c(F)c3)nc3[nH]nc(C)c23)C(C)(C)CN1` [Example 58, 4-[4-(5,5-Diethyl-2,2-dimethyl-piperazin-1-ylmethyl)-3-methyl-1H-pyrazolo[3,4-b]pyridin-6-yl]-2-fluoro-phenol] was tested, and the inhibition at 1.14 µM was 91%.

Source: patent US9133181B2, “Substituted 6-(4-hydroxy-phenyl)-1H-pyrazolo[3,4-b]pyridine derivatives as kinase inhibitors” (SANOFI, priority 2012, dated 2015)
